We go through eleven compounds from ChEMBL document CHEMBL5584257, “Semisynthetic derivatives of the fungal metabolite eupenifeldin via targeting the tropolone hydroxy groups” (Bioorg Med Chem Lett, 2024).

Values after ≈ are worked out from the molar mass of the structure shown. Where only a bound is given, the exact number is not on record here.

In general, IC50 refers to the concentration that gives 50% inhibition. Low values mean greater potency in that assay, high ones weaker potency in that assay. For orientation: logD means the decadic logarithm of the distribution of all forms, ionised or not, between an organic phase and buffer at a given pH. Usually solubility stands for how much of the substance goes into solution per volume. Low readings indicate a poorly soluble substance, high ones a readily soluble substance.

One series concerns OVCAR-3. The series can be described thus: Cytotoxicity against human OVCAR-3 cells treated for 72 hrs. Type of series: functional, cell-based. The following applies: OVCAR-3, 72 h.
A short description of series [1]: Lipophilicity, logD of compound at pH 7.4. Type of series: physicochemical. The following applies: buffer.
The subject of the next series is MDA-MB-435. The series can be described thus: Cytotoxicity against human MDA-MB-435 cells treated for 72 hrs. The following applies: MDA-MB-435, 72 h. The class given is functional, cell-based.
Series [2] in a line: Relative solubility of compound by measuring ratio of solubility of compound to solubility of Eupenifeldin. Type of series: physicochemical.
Series [3] can be described thus: Aqueous solubility of compound. Type of series: physicochemical. The following applies: buffer.

Take `Cc1cc(=O)c(OC(=O)C(C)(C)C)cc2c1C[C@H]1C[C@H](O)[C@@]3(C)Oc4cc(OC(=O)C(C)(C)C)c(=O)ccc4C[C@H]3CC(C)(C)/C=C/C[C@]1(C)O2`: the IC50 in the series on OVCAR-3 is 141 nM; with MDA-MB-435, 80 nM. In series [1] (read-out: logD), the logD turned out to be 6.9. Besides, the Ratio in series [2] is reported as 6 10^-3No_unit.

In the case of `Cc1cc(=O)c(OC(=O)C2CC2)cc2c1C[C@H]1C[C@H](O)[C@@]3(C)Oc4cc(OC(=O)C5CC5)c(=O)ccc4C[C@H]3CC(C)(C)/C=C/C[C@]1(C)O2`, the IC50 in the series on OVCAR-3 was more than 250 nM; with MDA-MB-435, 77 nM. Further, the logD in series [1] (read-out: logD) was determined as 5.3. In series [2], the Ratio is reported as 5 10^-3No_unit.

On to `CC(=O)Oc1cc2c(ccc1=O)C[C@H]1CC(C)(C)/C=C/C[C@]3(C)Oc4cc(OC(C)=O)c(=O)cc(C)c4C[C@H]3C[C@H](OC(C)=O)[C@@]1(C)O2`, for which the IC50 in the series on OVCAR-3 worked out at 193 nM; in the series on MDA-MB-435, 72 nM. For the same compound, the logD in series [1] (read-out: logD) was determined as 5.5. In series [2], the Ratio is 4 10^-2No_unit.

As to `Cc1cc(=O)c(OCc2ccccc2)cc2c1C[C@H]1C[C@H](O)[C@@]3(C)Oc4cc(OCc5ccccc5)c(=O)ccc4C[C@H]3CC(C)(C)/C=C/C[C@]1(C)O2`, the figures for the half-maximal inhibitory concentration (IC50) in the series with OVCAR-3 and in the series on MDA-MB-435 were more than 250 nM and 97 nM, respectively. Besides, in series [1] (read-out: logD), the pH-dependent lipophilicity (logD) was 7.5. In addition, in series [2], the Ratio is given as 2 10^-4No_unit.

Regarding `CC(=O)Oc1cc2c(ccc1=O)C[C@H]1CC(C)(C)/C=C/C[C@]3(C)Oc4cc(OC(C)=O)c(=O)cc(C)c4C[C@H]3C[C@H](O)[C@@]1(C)O2`, the half-inhibitory concentration (IC50) with OVCAR-3 is more than 250 nM; in the series on MDA-MB-435 it was 53 nM. Further, in series [1] (read-out: logD), the logD amounted to 4.6. In series [2], the Ratio is listed as 0.1.

With `Cc1cc(=O)c(O)cc2c1C[C@H]1C[C@H](OC(=O)CCC(=O)O)[C@@]3(C)Oc4cc(O)c(=O)ccc4C[C@H]3CC(C)(C)/C=C/C[C@]1(C)O2`, the values for the IC50 in the series with OVCAR-3 and in the series on MDA-MB-435 were 157 nM and 441 nM, respectively. For the same compound, the logD in series [1] (read-out: logD) amounted to 1. Further, the solubility in series [3] turned out to be 66.3 µg/mL (≈ 104 µM). Besides, the Ratio in series [2] came to 40.

As to `COCCOC(=O)Oc1cc2c(c(C)cc1=O)C[C@H]1C[C@H](O)[C@@]3(C)Oc4cc(O)c(=O)ccc4C[C@H]3CC(C)(C)/C=C/C[C@]1(C)O2`, the IC50 with OVCAR-3 was found to be 76 nM; in the series with MDA-MB-435 it was 31 nM. In addition, the logD in series [1] (read-out: logD) came to 4.3. Besides, the Ratio in series [2] amounted to 0.4.

As for `Cc1cc(=O)c(OC(=O)N(c2ccccc2)c2ccccc2)cc2c1C[C@H]1C[C@H](O)[C@@]3(C)Oc4cc(OC(=O)N(c5ccccc5)c5ccccc5)c(=O)ccc4C[C@H]3CC(C)(C)/C=C/C[C@]1(C)O2`, the IC50 in the series on OVCAR-3 is 228 nM; with MDA-MB-435, more than 250 nM. The compound further displayed a logD in series [1] of 9.8.

As for `CCN(CC)C(=O)Oc1cc2c(ccc1=O)C[C@H]1CC(C)(C)/C=C/C[C@]3(C)Oc4cc(OC(=O)N(CC)CC)c(=O)cc(C)c4C[C@H]3C[C@H](O)[C@@]1(C)O2`, the IC50 in the series with OVCAR-3 was 189 nM; in the series with MDA-MB-435, more than 250 nM. Besides, the logD in series [1] (read-out: logD) was 5.9. In addition, the Ratio in series [2] is given as 2 10^-2No_unit.

Turning to `CC(=O)O[C@H]1C(=O)[C@@]2(C)[C@H]([C@H](OC(=O)c3ccccc3)[C@]3(O)C[C@H](OC(=O)[C@H](O)[C@@H](NC(=O)c4ccccc4)c4ccccc4)C(C)=C1C3(C)C)[C@]1(OC(C)=O)CO[C@@H]1C[C@@H]2O` [PACLITAXEL], half-maximal inhibition in the series on OVCAR-3 (IC50) was put at 0.1 nM.

For the compound `COCCOC(=O)Oc1cc2c(ccc1=O)C[C@H]1CC(C)(C)/C=C/C[C@]3(C)Oc4cc(OC(=O)OCCOC)c(=O)cc(C)c4C[C@H]3C[C@H](O)[C@@]1(C)O2`, the half-inhibitory concentration (IC50) in the series with OVCAR-3 was more than 250 nM; in the series on MDA-MB-435, 101 nM. Besides, the logD in series [1] (read-out: logD) was 4.6. In addition, in series [2], the Ratio amounted to 0.2.
